Reference: article PMC6856805, “Environmental Risk Assessment for the Active Pharmaceutical Ingredient Mycophenolic Acid in European Surface Waters” (Environmental Toxicology and Chemistry, 2019)
Several values for one entry are separate records, joined by “and”; a condition that tells them apart may be missing. Equal values may be shown once.

Key:
[1] = Photodegradation in buffered aqueous solutions under natural sunlight; assay type: physicochemical
Experimental: In contrast, Franquet‐Griell et al. (2017a) reported MPA k photo values of 0.0284 min^–1 for UV‐C irradiation and 0.004 min^–1 in a Solar Box artificial sunlight reactor. […] Giebułtowicz and Nałęcz‐Jawecki (2016) presented a UV‐visual light spectrum of MPA in their Supporting Information with a λmax at 215 nm and 2 sequentially lower peaks at 248 and 297 nm, confirming UV‐C photosensitivity.
The photodegradation of MPA in buffered aqueous solutions at pH 5, 7 and 9 under natural sunlight was determined by Syntex, 'closely following the US FDA guideline' (Nicholson 1994)). MPA was used in solutions of 3.12×10^–5 M (= 10 mg/L); the pH 5 solution was buffered with 0.1 M sodium acetate, the pH 7 solution with 0.1 M monobasic sodium phosphate and the pH 9 solution with 0.1 M sodium borate buffer. As actinometers (reference photodegradants) p-nitroanisole at 1.00×10^–5 M was used, with 4.96×10^–3 M pyridine for pH 5, with 6.20×10^–3 M pyridine for pH 7 and with 9.93×10^–3 M pyridine for pH 9. In each of the seasonal studies, hermetically closed quartz tubes with either one of the MPA solutions or the corresponding actinometer solutions were exposed to natural sunlight in triplicate. Single control tubes containing either MPA solution or actinometer solution, both at different pHs, were wrapped in aluminium foil and covered in black plastic and exposed in parallel. The tubes were set up in Palo Alto, Ca, USA at 37° 25' N, in parallel on a board painted black, which was exposed on a stand pointing due […] at an angle of 30°. Data for the four seasonal experiments, with date, time of initiation and end, sampling intervals, weather, cloud cover and temperature, are given in the report. At each of several equivalent timepoints, one set of tubes was removed from sunlight, analysed by HPLC and compared with the respective dark control. The substance loss of p-nitroanisole, with known quantum yield, in the […] served to calibrate the loss of MPA in the test tubes and determine the photolytic rate constants kphoto and half-lives for MPA at different pH levels and insolations over the seasons.

[2] = Antibiotic resistance risk quotient (PEC or MEC / PNECABR)
Experimental: Antibiotic resistance risk is assessed through comparing PECs or MECs with a PNEC for formation or maintenance of antibiotic resistance (PNECABR). There is no universally accepted or regulatory algorithm for deriving a reliable PNECABR for bacteria, so for the time being this is approximated by applying assessment factors to bacterial minimal inhibitory concentrations (MICs). […] To be fully consistent with Bengtsson‐Palme and Larsson's (2016) approach to PNECABR derivation, the authors were contacted for help; they (J. Bengtsson‐Palme, Department of Infectious Diseases, Institute of Biomedicine, The Sahlgrenska Academy, University of Gothenberg, Gothenberg, Sweden, personal communication) state that “we only use species with 10 or more MIC observations, to avoid drawing conclusions from insufficient data […] . The only species with >10 observations in the Noto et al. (1969) paper is S[taphylococcus] aureus. In addition, when the MIC1% are selected, only one MIC [J.O.Straub's italics] value is selected per species (the lowest). Finally, the uncertainty factor for low sampling numbers is calculated as: (observed lowest MIC) × (number of tested species) ÷ 41.” Both these provisional PNECABR values were derived from the MPA MICs; the lower was selected and compared with the PECs and MECs.
This provisional PNECABR of 64 µg MPA/L can now be compared with the PECs for STPs and surface water and with the highest MECs available. […] For surface waters, all PECs including the highest, the Guadalquivir River low‐flow 99th %ile ePiE PEC, were below the PNECABR, and thus all risk quotients were ≤0.194, all refined PEC‐per‐country risk quotients were ≤0.0083, and all mean‐ and low‐flow median ePiE PEC risk quotients were ≤0.00033; finally, the highest MEC risk quotient was 0.0103. Both models and measurements imply that throughout Europe, even in the worst‐case scenario of a southern Mediterranean catchment with extremely low river flow in summer, no significant antibiotic resistance risk emerges for MPA.

[3] = test system: Wistar rat embryos, murine embryonic stem cells, and mouse fibroblasts; parameters: method as in Eckardt and Stahlmann 2010; conditions: mammalian systems; ref Eckardt and Stahlmann 2010; cited from earlier work
[4] = Dissociation constant (pKa) by titration; assay type: physicochemical; conditions: 25 ± 2 °C
Source text: Syntex derived many basic physicochemical properties for both MPM and MPA in the early 1990s. The results for MPA are mostly given in the present study.

[5] = OECD test guideline 106 batch equilibrium adsorption test; assay type: physicochemical
Experimental: An OECD 106 phase I batch equilibrium adsorption test was performed by Toxi-Coop, Balatonfűred, Hungary (Halász-Laky 2018) with MPA and three soils plus two activated sludges of different characteristics (pHKCl, organic carbon (OC) content, plus for the soils sand fraction, silt fraction, clay fraction and USDA soil texture).
In short, the substrates were put in contact with MPA in aqueous 0.01 M CaCl2 solutions; the mixture was agitated for an appropriate time to reach equilibrium, in the case of MPA for 10 hours. The soil/sludge suspensions were then separated and the aqueous phase diluted twofold with the mobile HPLC phase, analysed by HPLC (Supplemental Information) and the amount of test item in the water phase calculated. The soil or sludge phases were extracted twice with acetonitrile/water/1 mg/mL NaOH solution (75/75/2, v/v/v); the extracts were diluted twofold with the mobile phase and then analysed by HPLC. Based on the analytics the mass balance could be established. The adsorption constant Kd was calculated as MPA concentration adsorbed to substrate divided by MPA concentration in aqueous CaCl2 solution; subsequently the Kd was normalised to the OC content to result in the KOC for the different substrates (Halász-Laky 2018).

Q: Which results are given for `COc1c(C)c2c(c(O)c1CC=C(C)CCC(=O)O)C(=O)OC2` [MPA, 6‐(1,3‐dihydro‐4‐hydroxy‐6‐methoxy‐7‐methyl‐3‐oxo‐5‐isobenzofuranyl)‐4‐methyl‐4‐hexenoic acid]?
A: k photo ([1]; pH 5, summer): 0.0059 min^–1; k photo ([1]; pH 5, winter): 0.0017 min^–1; k photo ([1]; pH 7, summer): 0.018 min^–1; k photo ([1]; pH 7, winter): 0.0049 min^–1; k photo ([1]; pH 9, summer): 0.031 min^–1; k photo ([1]; pH 9, winter): 0.0087 min^–1; antibiotic resistance risk quotient, highest MEC [2]: 0.0103; antibiotic resistance risk quotients, all mean‐ and low‐flow median ePiE PEC [2]: ≤ 0.00033; antibiotic resistance risk quotients, all refined PEC‐per‐country [2]: ≤ 0.0083; antibiotic resistance risk quotient, STPs ([2]; highest STP effluent MEC 4.19 µg/L): 0.065; antibiotic resistance risk quotient, STPs ([2]; highest refined PECSTP 8.83 µg MPA/L): 0.138; antibiotic resistance risk quotients, surface waters, all PECs ([2]; including Guadalquivir low‐flow 99th %ile ePiE PEC): ≤ 0.194; concentrations causing proliferation, cellular and developmental toxicity [3]: ≥ 31 ng/mL; pK a, carboxylic acid [4]: 4.58; pK a, phenolic [4]: 8.045; highest K OC ([5]; in one of the activated sludges): 37 L/kg; activated sludge K d ([5]; two activated sludges): 9.3 L/kg and 13 L/kg
